Data reported in patent US7855300B2, “Bis(trimethylsilyl)phenyl compound or salt thereof, and use thereof” (Taiho Pharmaceutical Co., Ltd., priority 2007, dated 2010).

Key:
[1] = Rat toxicity test, oral administration for 4 weeks; type: in vivo, male SD rats; design: key: +: recognized; −: not observed
Protocol: The compounds of the present invention and the reference compound TAC-101 were orally administered to male SD rats (CLEA Japan, Inc.) for 4 weeks. The dosage of each compound was 6 mg/kg or 24 mg/kg per rat. Differences in toxic symptoms were compared and studied.

[2] = system: JHH-7 (human hepatocellular carcinoma cell lines); assay: Antitumor effect in JHH-7 orthotopic liver transplantation model; type: in vivo, male nude mice (BALB/cA Jcl-nu); details: 16 mg/kg orally once per day for 14 days; tumor weight on 15th day; T/C×100
Protocol: RARα high expression cells, i.e., human hepatocellular carcinoma cell lines JHH-7, were implanted in the outside left lobe of the liver of male nude mice (BALB/cA Jcl-nu; CLEA Japan, Inc.) under Nembutal anesthesia in an amount of 1×10^6 cells (0.02 ml) per mouse. On the 11th to 14th day after implantation, the mice were divided into groups, each consisting of seven mice. The compounds of the present invention and the reference compound TAC-101 were suspended in 0.5% HPMC and 1.6 mg/ml solution was orally administered to the mice at a liquid dose of 10 ml/kg, namely, at a dose of 16 mg/kg, once per day for 14 days. On the 15th day after the start of administration, the mice were exsanguinated to death under ether anesthesia. Tumors formed in the outside left lobe of the liver were extracted, and the tumor weight was measured to assess the antitumor effect. The antitumor effect was evaluated by calculating the tumor growth rate (%) using the following equation. The antitumor effect of each compound was analyzed by Student's test and statistical significance was determined. Tumor growth rate(%)=T/C×100 T: Average tumor weight in the groups administered with the test compounds C: Average tumor weight in the groups not administered with test compounds

[3] = system: Human prostatic carcinoma cell lines TSU-Pr1; assay: Growth inhibitory and differentiation-inducing effect on prostate cancer cells; type: cell-based; details: 10 μM, IGF-I 10 ng/ml; for Cytostatic activity (crystal violet staining): 7th day after culturing, FIG. 5; for Change in cell shape (differentiation-inducing activity): after three days, FIG. 4
Protocol: Human prostatic carcinoma cell lines TSU-Pr1 prepared in RPMI1640 culture medium containing 2% fetal bovine serum were plated into a 24-well culture plate at a cell density of 3×10^3 cells per well. The next day, IGF-I (10 ng/ml) was added as a growth factor, and the cells were treated with Compounds 2 and 3 of the present invention and the reference compound TAC-101 each in an amount of 10 μM. Change in cell shape after three days was observed. Moreover, on the 7th day after culturing, the cells were fixed with 25% glutaraldehyde solution. Cytostatic activity was determined by the crystal violet staining method, and the statistical significance of the cytostatic activity was analyzed by Student's test. […] In the Control group that was not treated with medicine, a cobblestone-like shape and vigorous cell division were observed. Such cell shape is characteristic of epithelioid cancer cells.

[4] = system: Human prostatic carcinoma cell lines TSU-Pr1; assay: Cancer malignancy-reducing effect (tumorigenicity of pretreated TSU-Pr1 cells implanted in nude mice); type: in vivo, male nude mice (BALB/cA Jcl-nu); details: cells treated 72 hours, six subcutaneous sites, 26th day after implantation
Protocol: Human prostatic carcinoma cell lines TSU-Pr1 were treated with Compound 3 of the present invention and the reference compound TAC-101 for 72 hours. The cells were subcutaneously implanted into male nude mice (BALB/cA Jcl-nu; CLEA Japan, Inc.) at six sites in total per mouse. On the 26th day after implantation, the rate of subcutaneous tumor formation was observed and the effect of reducing cancer malignancy was evaluated. Statistical significance was analyzed by Wilcoxon test.

[5] = system: non-small cell lung cancer; details: phase I study, Non-Patent Document 5; cited from earlier work

Question: Which melting point does the source give for C[Si](C)(C)c1cc(C(=O)Nc2ccc(/C=C/C(=O)O)cn2)cc([Si](C)(C)C)c1 here?
Answer: Its melting point is 302 °C (dec.).

Question: Which “Alopecia Symptom” value ([1]; 6 mg/kg) does the source give for C[Si](C)(C)c1cc(C(=O)Nc2ccc(/C=C/C(=O)O)c(F)c2)cc([Si](C)(C)C)c1 [Compound 2, 4-[[3,5-Bis(trimethylsilyl)benzoyl]amino]-2-fluorocinnamic acid] here?
Answer: Its value is “−”.

Question: What about the “Endocortical Proliferation” value ([1]; 6 mg/kg) of the same compound?
Answer: Its value is “−”.

Question: What about the “Alopecia Symptom” value ([1]; 24 mg/kg) of the same compound?
Answer: The value was “−”.

Question: And the “Endocortical Proliferation” value ([1]; 24 mg/kg)?
Answer: The value was “−”.

Question: What about the “Tumor Growth Rate (%)” value [2] of the same compound?
Answer: The value was 21%.

Question: And the “Cytostatic activity (crystal violet staining)” value [3]?
Answer: Its value is “dramatic cytostatic effect was recognized”.

Question: And the “Change in cell shape (differentiation-inducing activity)” value [3]?
Answer: Its value is “dramatic change was recognized in the shape of neuroid cells”.

Question: With C[Si](C)(C)c1cc(C(=O)Nc2ccc(/C=C/C(=O)O)cc2)cc([Si](C)(C)C)c1 [Compound 3, 4-[[3,5-Bis(trimethylsilyl)benzoyl]amino]cinnamic acid] as the compound, how does the “Alopecia Symptom” value ([1]; 6 mg/kg) read?
Answer: The value was “−”.

Question: And the “Endocortical Proliferation” value ([1]; 6 mg/kg)?
Answer: The value was “−”.

Question: And the “Alopecia Symptom” value ([1]; 24 mg/kg)?
Answer: The value was “−”.

Question: What about the “Endocortical Proliferation” value ([1]; 24 mg/kg) of the same compound?
Answer: The value was “−”.

Question: What about the “Tumor Growth Rate (%)” value [2] of the same compound?
Answer: Its value is 25%.

Question: And the “Cytostatic activity (crystal violet staining)” value [3]?
Answer: Its value is “dramatic cytostatic effect was recognized”.

Question: And the “Change in cell shape (differentiation-inducing activity)” value [3]?
Answer: Its value is “dramatic change was recognized in the shape of neuroid cells”.

Question: What about the “Graft Survival (%)” value [4] of the same compound?
Answer: The value was 17%.

Question: And the “Tumor Formation” value [4]?
Answer: The value was 1/6.

Question: Which “Tumor Growth Rate (%)” value [2] does the source give for C/C(=C\C(=O)O)c1ccc(NC(=O)c2cc([Si](C)(C)C)cc([Si](C)(C)C)c2)cc1 [Compound 6, (E)-3-[4-[[3,5-Bis(trimethylsilyl)benzoyl]amino]phenyl]-2-butenoic acid] here?
Answer: The value was 31%.

Question: For C/C(=C\C(=O)O)c1ccc(NC(=O)c2cc([Si](C)(C)C)cc([Si](C)(C)C)c2)cc1F [Compound 11, (E)-3-[4-[[3,5-Bis(trimethylsilyl)benzoyl]amino]-2-fluorophenyl]-2-butenoic acid], which “Tumor Growth Rate (%)” value [2] is on record?
Answer: Its value is 36%.

Question: Which results are given for C/C(=C\c1ccc(NC(=O)c2cc([Si](C)(C)C)cc([Si](C)(C)C)c2)cc1F)C(=O)O [Compound 14, (E)-3-[4-[[3,5-Bis(trimethylsilyl)benzoyl]amino]-2-fluorophenyl]-2-methylacrylic acid]?
Answer: Alopecia Symptom ([1]; 6 mg/kg): −; Endocortical Proliferation ([1]; 6 mg/kg): −; Alopecia Symptom ([1]; 24 mg/kg): −; Endocortical Proliferation ([1]; 24 mg/kg): −

Question: For C[Si](C)(C)c1cc(C(=O)Nc2ccc(C(=O)O)cc2)cc([Si](C)(C)C)c1 [TAC-101, 4-[3,5-bis(trimethylsilyl)benzamido]benzoic acid, reference compound], which “Alopecia Symptom” value ([1]; 6 mg/kg) is on record?
Answer: The value was “+”.

Question: And the “Endocortical Proliferation” value ([1]; 6 mg/kg)?
Answer: Its value is “−”.

Question: And the “Alopecia Symptom” value ([1]; 24 mg/kg)?
Answer: The value was “+”.

Question: What about the “Endocortical Proliferation” value ([1]; 24 mg/kg) of the same compound?
Answer: The value was “+”.

Question: And the Clinical response [5]?
Answer: The Clinical response was “complete remission cases were reported”.

Question: What about the Side effects [5] of the same compound?
Answer: The Side effects was “symptoms (skin disorders) similar to hypervitaminosis A were observed”.

Question: And the “Tumor Growth Rate (%)” value [2]?
Answer: The value was 52%.

Question: What about the “Change in cell shape (differentiation-inducing activity)” value [3] of the same compound?
Answer: Its value is “no significant change was recognized in the shape”.

Question: And the “Graft Survival (%)” value [4]?
Answer: The value was 67%.

Question: And the “Tumor Formation” value [4]?
Answer: Its value is 4/6.
